Reference: PubChem BioAssay AID330 (DTP/NCI, 2004)
Where “and” joins values, the source holds several entries; their conditions need not be identical. Equal values may be shown once. Inconclusive results and toxic doses are left out. How the source made its calls: active means survival T/C of 150% or more; inactive means T/C below 125% in these data.

System: P388 leukemia ip, CD2F1 mice, survival T/C
Assay: NCI In Vivo Anticancer Drug Screen. Data for tumor model P388 Leukemia (intraperitoneal) in CD2F1 (CDF1) mice
Details: endpoint: median survival time, higher = longer survival
Outline: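 Mice carrying the transplanted tumor received test compound or vehicle. Survival was recorded in each group, and the value is the treated-group measurement divided by that of the vehicle-treated control group.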

[1] = dose: 60.0 mg/kg/injection, schedule: Q01DX005 (ip), vehicle: Klucel (hydroxypropylcellulose) (HPC)
[2] = dose: 120.0 mg/kg/injection, schedule: Q01DX005 (ip), vehicle: Klucel (hydroxypropylcellulose) (HPC)
[3] = dose: 240.0 mg/kg/injection, schedule: Q01DX005 (ip), vehicle: Klucel (hydroxypropylcellulose) (HPC)
[4] = dose: 100.0 mg/kg/injection, schedule: Q01DX009 (ip), vehicle: saline with Tween-80
[5] = dose: 200.0 mg/kg/injection, schedule: Q01DX009 (ip), vehicle: saline with Tween-80
[6] = dose: 100.0 mg/kg/injection, schedule: Q04DX002 (ip), vehicle: saline
[7] = dose: 200.0 mg/kg/injection, schedule: Q04DX002 (ip), vehicle: saline
[8] = dose: 60.0 mg/kg/injection, schedule: Q01DX005 (ip), vehicle: saline with Tween-80
[9] = dose: 120.0 mg/kg/injection, schedule: Q01DX005 (ip), vehicle: saline with Tween-80
[10] = dose: 240.0 mg/kg/injection, schedule: Q01DX005 (ip), vehicle: saline with Tween-80
[11] = dose: 6.25 mg/kg/injection, schedule: Q01DX009 (ip), vehicle: saline
[12] = dose: 12.5 mg/kg/injection, schedule: Q01DX009 (ip), vehicle: saline
[13] = dose: 25.0 mg/kg/injection, schedule: Q01DX009 (ip), vehicle: saline
[14] = dose: 25.0 mg/kg/injection, schedule: Q01DX005 (ip), vehicle: Klucel (hydroxypropylcellulose) (HPC)
[15] = dose: 50.0 mg/kg/injection, schedule: Q01DX005 (ip), vehicle: Klucel (hydroxypropylcellulose) (HPC)
[16] = dose: 100.0 mg/kg/injection, schedule: Q01DX005 (ip), vehicle: Klucel (hydroxypropylcellulose) (HPC)
[17] = dose: 200.0 mg/kg/injection, schedule: Q01DX005 (ip), vehicle: Klucel (hydroxypropylcellulose) (HPC)
[18] = dose: 100.0 mg/kg/injection, schedule: Q04DX002 (ip), vehicle: saline with Tween-80

Measured: T/C

CC(=O)Cc1nc2ccccc2[nH]c1=O
inactive: dose: 15.0 mg/kg/injection, schedule: Q01DX005 (ip), vehicle: Klucel (hydroxypropylcellulose) (HPC) 92 % of control | dose: 30.0 mg/kg/injection, schedule: Q01DX005 (ip), vehicle: Klucel (hydroxypropylcellulose) (HPC) 90 % of control and 96 % of control | [1] 90 % of control and 98 % of control | [2] 91 % of control | [3] 100 % of control

Nc1cc(=O)[nH]c(N)n1
inactive: dose: 6.25 mg/kg/injection, schedule: Q01DX009 (ip), vehicle: saline with Tween-80 106 % of control | dose: 12.5 mg/kg/injection, schedule: Q01DX009 (ip), vehicle: saline with Tween-80 106 % of control | dose: 25.0 mg/kg/injection, schedule: Q01DX009 (ip), vehicle: saline with Tween-80 106 % of control | dose: 50.0 mg/kg/injection, schedule: Q01DX009 (ip), vehicle: saline with Tween-80 104 % of control and 108 % of control | [4] 107 % of control | [5] 104 % of control

Cc1ccc(C2(Br)C(=O)c3ccccc3C2=O)cc1
inactive: [6] 103 % of control | [7] 102 % of control | dose: 400.0 mg/kg/injection, schedule: Q04DX002 (ip), vehicle: saline 101 % of control

O=C(CCCl)Nc1cc2ccccc2oc1=O
inactive: [8] 91 % of control | [9] 92 % of control | [10] 89 % of control

CC(=O)Nc1ccc(C(O)C2=CC(=O)c3ccccc3C2=O)cc1 (configuration not stated)
inactive: [11] 97 % of control | [12] 97 % of control | [13] 86 % of control | dose: 25.0 mg/kg/injection, schedule: Q01DX009 (ip), vehicle: suspension in saline 103 % of control | dose: 50.0 mg/kg/injection, schedule: Q01DX009 (ip), vehicle: suspension in saline 114 % of control | dose: 100.0 mg/kg/injection, schedule: Q01DX009 (ip), vehicle: suspension in saline 113 % of control

CCCCOP(=O)(O)OCCCC.[Th]
inactive: dose: 25.0 mg/kg/injection, schedule: Q01DX001 (ip), vehicle: saline with Tween-80 113 % of control | dose: 50.0 mg/kg/injection, schedule: Q01DX001 (ip), vehicle: saline with Tween-80 100 % of control | dose: 100.0 mg/kg/injection, schedule: Q01DX001 (ip), vehicle: saline with Tween-80 102 % of control | dose: 400.0 mg/kg/injection, schedule: Q01DX001 (ip), vehicle: saline with Tween-80 97 % of control

COc1ccc2cc(C(=O)c3ccccc3)c(=O)oc2c1
inactive: [8] 93 % of control | [9] 96 % of control | [10] 96 % of control

Cn1c(=O)c2cc3c(cc2c2ccccc21)OCO3
inactive: dose: 25.0 mg/kg/injection, schedule: Q01DX009 (ip), vehicle: other 90 % of control | dose: 50.0 mg/kg/injection, schedule: Q01DX009 (ip), vehicle: other 93 % of control | dose: 100.0 mg/kg/injection, schedule: Q01DX009 (ip), vehicle: other 90 % of control | dose: 200.0 mg/kg/injection, schedule: Q01DX009 (ip), vehicle: other 90 % of control | dose: 400.0 mg/kg/injection, schedule: Q01DX009 (ip), vehicle: other 93 % of control

COC(=O)N1C2CCCCC2=NN(c2ccccc2)N1C(=O)OC (configuration not stated)
inactive: [14] 100 % of control | [15] 98 % of control | [16] 93 % of control | [17] 91 % of control

O=C1S/C(=C2\C(=O)N(CN3CCCCC3)c3ccccc32)C(=O)N1CN1CCCCC1
inactive: [1] 99 % of control | [2] 96 % of control | [3] 92 % of control

NNc1n[nH]c(=O)c2cnccc12
inactive: dose: 25.0 mg/kg/injection, schedule: Q04DX002 (ip), vehicle: saline with Tween-80 96 % of control | dose: 50.0 mg/kg/injection, schedule: Q04DX002 (ip), vehicle: saline with Tween-80 93 % of control | [18] 100 % of control and 95 % of control

COC(=O)C1=C(C(=O)OC)[C@@H]2CC[C@H]1[C@H]1[C@@H]2N=NN1c1ccccc1
inactive: dose: 50.0 mg/kg/injection, schedule: Q01DX005 (ip), vehicle: saline with Tween-80 106 % of control | dose: 100.0 mg/kg/injection, schedule: Q01DX005 (ip), vehicle: saline with Tween-80 86 % of control | dose: 200.0 mg/kg/injection, schedule: Q01DX005 (ip), vehicle: saline with Tween-80 99 % of control

O=c1[nH]cc(I)cc1I
inactive: [4] 95 % of control | [5] 95 % of control | dose: 400.0 mg/kg/injection, schedule: Q01DX009 (ip), vehicle: saline with Tween-80 90 % of control

OC1(c2ccccc2)C(c2ccccc2)=C(c2ccccc2)C(c2ccc(CCCCCCCCc3ccc(C4=C(c5ccccc5)C(O)(c5ccccc5)C(c5ccccc5)=C4c4ccccc4)cc3)cc2)=C1c1ccccc1 (configuration not stated)
inactive: dose: 100.0 mg/kg/injection, schedule: Q01DX001 (ip), vehicle: Klucel (hydroxypropylcellulose) (HPC) 86 % of control | dose: 200.0 mg/kg/injection, schedule: Q01DX001 (ip), vehicle: Klucel (hydroxypropylcellulose) (HPC) 89 % of control

Cc1ccc(-n2c(C)nc3c(c(C)c(C)n3-c3ccccc3)c2=N)cc1
inactive: dose: 6.25 mg/kg/injection, schedule: Q01DX005 (ip), vehicle: Klucel (hydroxypropylcellulose) (HPC) 90 % of control | dose: 12.5 mg/kg/injection, schedule: Q01DX005 (ip), vehicle: Klucel (hydroxypropylcellulose) (HPC) 100 % of control | [14] 98 % of control

Cc1cc(Cl)cc(C(=O)c2ccccc2)c1OC(N)=O
inactive: [15] 101 % of control | [16] 103 % of control | [17] 106 % of control

Cn1c(=O)c(CCCC(=O)O)nc2ccccc21
inactive: [18] 97 % of control | dose: 200.0 mg/kg/injection, schedule: Q04DX002 (ip), vehicle: saline with Tween-80 102 % of control | dose: 400.0 mg/kg/injection, schedule: Q04DX002 (ip), vehicle: saline with Tween-80 107 % of control

CC(C)=CC1OC2CC3(C)C4=C(CCC3(C)C2C(C)C1O)C1(C)CCC(O)C(C)(C)C1CC4 (configuration not stated)
inactive: dose: 15.0 mg/kg/injection, schedule: Q01DX009 (ip), vehicle: saline 98 % of control | dose: 30.0 mg/kg/injection, schedule: Q01DX009 (ip), vehicle: saline 102 % of control | dose: 60.0 mg/kg/injection, schedule: Q01DX009 (ip), vehicle: saline 100 % of control

NC(CS(=O)(=O)O)C(=O)O (configuration not stated)
inactive: [6] 105 % of control | [7] 96 % of control

CN1CCC(O)(/C=C\C2(O)CCN(C)CC2)CC1
inactive: dose: 100.0 mg/kg/injection, schedule: Q01DX001 (ip), vehicle: saline 96 % of control | dose: 200.0 mg/kg/injection, schedule: Q01DX001 (ip), vehicle: saline 89 % of control | dose: 400.0 mg/kg/injection, schedule: Q01DX001 (ip), vehicle: saline 107 % of control

CCC1(c2ccccc2)N=C1N(C)C (configuration not stated)
inactive: [11] 106 % of control and 92 % of control | [12] 109 % of control and 120 % of control | [13] 116 % of control and 118 % of control | dose: 200.0 mg/kg/injection, schedule: Q01DX009 (ip), vehicle: saline 93 % of control

COc1cccc(C[n+]2ccccc2C#N)c1OC
inactive: dose: 3.12 mg/kg/injection, schedule: Q04DX002 (ip), vehicle: saline 101 % of control | dose: 6.25 mg/kg/injection, schedule: Q04DX002 (ip), vehicle: saline 102 % of control | dose: 12.5 mg/kg/injection, schedule: Q04DX002 (ip), vehicle: saline 103 % of control and 92 % of control
